Source: patent publication US8980874B2, “Method and composition for treating diabetic ketoacidosis” (Midwestern University, priority 2009, dated 2015)
Where a name gives a salt, the structure may show the parent alone.

Tests used:
Assay type in all cases: in vivo
rat model of DKA [1] = assay: Plasma ET-1 level (Enzyme Immunometric Assay) in diabetic ketoacidosis rats
Description: In order to analyze the change in plasma ET-1 level during the treatment, blood samples were withdrawn through right femoral artery of the rats before and at the end of experiment and were collected into chilled EDTA tubes (1 mg/mL blood) containing aprotinin (500 KIU/mL of blood). The blood samples were centrifuged at 1,600×g for 15 minutes at 0° C. and plasma separated was stored at −70° C. until analyzed. ET-1 level was estimated using Assay's Design's Endothelin-1 Enzyme Immunometric Assay Kit (Nowicki et al., 2005; Brondani et al., 2007). Briefly, plasma samples and standards were added to wells coated with a monoclonal antibody specific for ET-1. The plate then was washed after 24 hours of incubation, leaving only bound ET-1 on the plate. A solution of horseradish peroxidase (HRP) labeled monoclonal antibody to ET-1 then was added, which binds to the ET-1 captured on the plate. The plate was incubated for 30 min, then washed to remove excess HRP labeled antibody. A solution of 3,3′,5,5′-tetramethylbenzidine (TMB) substrate was added, which generates a blue color when catalyzed by the HRP. Hydrochloric acid (1N) was added to stop the substrate reaction, and the resulting yellow color was read at 450 nm using DTX 800 Multimode detector. The data was analyzed with Multimode Detection Software (Beckman Coulter, Inc., Fullerton, Calif.). The measured optical density is directly proportional to the concentration of ET-1 in either standards/plasma. Blood samples from all the groups were collected before the start and at end of the treatment.
(§1) Group 4: Diabetic saline/insulin treated (D-Saline+insulin treated): Rats were injected with streptozotocin in citrate buffer (150 mg/kg ip) to induce diabetes and ketoacidosis. On day three, rats were treated with 1.5 U/kg regular insulin (Humulin® R (Regular human insulin, rDNA origin). On day four, saline and insulin treatment was carried out. Rats were infused via cannulated femoral vein saline, 0.9% NaCl at 80 mL/kg/hr and 1.5 U/kg/hr regular insulin for one hour. During the next two through four hours, rats were infused with saline, 0.9% NaCl at 40 mL/kg/hr and 1.5 U/kg/hr regular insulin (Yuen et al., 2008).
(§2) Group 5: Diabetic BMS-182874/saline/insulin treated (D-BMS+Saline+insulin treated): Rats were injected with streptozotocin in citrate buffer (150 mg/kg ip) to induce diabetes and ketoacidosis. On day three, rats were treated with 1.5 U/kg regular insulin. On day four, rats were administered a bolus dose of selective ETA receptor antagonist, BMS-182874 (9 mg/kg), then saline and insulin treatment was carried out. Rats were infused via cannulated femoral vein saline, 0.9% NaCl at 80 mL/kg/hr and 1.5 U/kg/hr regular insulin for one hour. During the next two through four hours rats were infused with saline, 0.9% NaCl at 40 mL/kg/hr and 1.5 U/kg/hr regular insulin.
(§3) Group 6: Diabetic BQ123/saline/insulin treated (D-BQ+saline+insulin treated): Same as above for Group 5, except BQ123 (1 mg/kg body weight) is used as a substitute for BMS-182874 (9 mg/kg).
(§4) Data are presented as mean±SEM. The significance of differences was estimated by one-way analysis of variance (intra group comparison with respect to base line data) and two-way analysis of variance (inter group comparison with respect to corresponding time points from each groups) followed by application of the Dunnett's Multiple Comparisons and Bonferroni test respectively. A P value of less than 0.05 was considered to be significant. The statistical analysis was processed with GraphPad Prism software Version 5.00.

rat model of DKA [2] = assay: Arterial blood gases, electrolytes, lactate and hematocrit in diabetic ketoacidosis rats; settings: for arterial blood pH, Day 4 (pre-tx): instrument could not record pH below 6.80, mean±SEM
Text: Arterial blood pH, pO2, pCO2, Na^+, K^+, lactate, and hematocrit were monitored prior to, at one hour, and at the end of treatment. Blood samples were drawn from the arterial cannula using blood gas sampling syringes (Innovative Medical Technologies, Inc. Leawood, Kans.) and analyzed using a GEM Premier 3000 unit (Instrument Laboratory, Lexington, Mass.). Blood samples were withdrawn from the femoral artery for baseline reading prior to start of treatment, after the first hour of treatment, and then at the end of the treatment (fifth hour of experiment).
as §1, §2, §3, §4

rat model of DKA [3] = assay: Cardiovascular parameters (MAP, pulse pressure, heart rate) in diabetic ketoacidosis rats
Text: Rats were anaesthetized with urethane (1.5 g/kg ip.) and prepared for the determination of hemodynamic parameters (Gulati et al., 1997a; Gulati et al., 1997b). The anesthetized rats were shaved and immobilized to prepare for cannulation. A 2-3 centimeter (cm) incision was made above the femoral vein and artery and the vessels were dissected and cleaned. The left femoral vein was cannulated (PE-50 tubing, Clay Adams, Parsipanny, N.J.) and secured for drug administration. An ultra-miniature pressure transducer SPR-320 (2F Polyurethane), with a single pressure sensor side mounted at the tip (Millar Instruments, Houston, Tex.) was inserted in the left femoral artery to acquire the hemodynamic signals. Pressure transducer was connected to bridge amplifier (ML221 Bridge Amp; AD Instruments, Mountain View, Calif., USA) with Viking connector (AEC-10C) and the signals were continuously acquired at a sampling rate of 1000 S^−1 using Millar PowerLab 16/30 data acquisition system (AD Instruments, Mountain View, Calif., USA). Mean arterial pressure (MAP), heart rate (HR), and pulse pressure (PP) were determined and analyzed with LabChart-5.00 software program (Millar Instruments). After the experiment was completed, the animals were euthanized with a high dose of urethane (3 gm/kg).
as §1, §2, §3, §4

[4] = day 4, BMS-182874+saline+insulin group
[5] = day 4, compared to diabetic untreated rats, result in words
[6] = saline+insulin, alone or after bolus BMS-182874 9 mg/kg or BQ123 1 mg/kg

Q: For `Cc1noc(NS(=O)(=O)c2cccc3c(N(C)C)cccc23)c1C` [BMS-182874, (5-Dimethylamino)-N-(3,4-dimethyl-5-isoxazolyl)-1-naphthalene sulfonamide hydrochloride], which “plasma ET-1, Day 4 (pre tx)” value (rat model of DKA [1]; baseline before treatment, mean±SEM) is on record?
A: 11.93 ± 2.01 pg/mL

Q: What about the “effect of treatment on plasma ET-1 level” value (rat model of DKA [1]; day 4, result in words (Table 4, FIG. 9)) of the same compound?
A: did not significantly affect plasma ET-1 level

Q: And the “plasma ET-1, Day 4 (end of tx)” value (rat model of DKA [1]; saline+insulin, alone or after bolus BMS-182874 9 mg/kg or BQ123 1 mg/kg, mean±SEM)?
A: 20.40 ± 3.23 pg/mL

Q: And the “arterial blood pH, Day 4 (pre-tx)” value (rat model of DKA [2]; baseline, hydrochloride)?
A: 6.82±0.02

Q: What about the “arterial blood pH, Day 4 (pre-tx)” value (rat model of DKA [2]; baseline, listed as BMS, hydrochloride) of the same compound?
A: 6.82 ± 0.02

Q: And the “arterial blood pCO2, Day 4 (pre-tx)” value (rat model of DKA [2]; baseline, mean±SEM)?
A: 28.71 ± 2.08 mmHg

Q: What about the “arterial blood pO2, Day 4 (pre-tx)” value (rat model of DKA [2]; baseline, mean±SEM) of the same compound?
A: 156.71 ± 7.11 mmHg

Q: What about the “blood K+ level, Day 4 (pre-tx)” value (rat model of DKA [2]; baseline, mean±SEM) of the same compound?
A: 4.21 ± 0.33 mmol/L

Q: And the “blood Na+ level, Day 4 (pre-tx)” value (rat model of DKA [2]; baseline, mean±SEM)?
A: 135.71 ± 2.06 mmol/L

Q: And the “blood hematocrit (Hct), Day 4 (pre-tx)” value (rat model of DKA [2]; baseline, mean±SEM)?
A: 45.71 ± 1.48%

Q: And the blood K+ levels, after treatment (to) (rat model of DKA [2]; [4])?
A: 2.75 ± 0.27 mM

Q: And the blood K+ levels, before treatment (from) (rat model of DKA [2]; [4])?
A: 4.21 ± 0.33 mM

Q: And the “effect of treatment on arterial blood pH (acidosis)” value (rat model of DKA [2]; day 4, antagonist given with saline+insulin, result in words)?
A: produced a significant improvement in arterial blood pH

Q: And the “effect of treatment on blood K+ levels” value (rat model of DKA [2]; [5])?
A: significantly reduced the change in blood K^+ levels

Q: What about the “effect of treatment on blood lactate levels” value (rat model of DKA [2]; [5]) of the same compound?
A: significantly reduced the change in blood lactate levels

Q: What about the “effect of treatment on hematocrit” value (rat model of DKA [2]; [5]) of the same compound?
A: significantly reduced the hematocrit

Q: And the “arterial blood pCO2, Day 4 (1 hour of tx)” value (rat model of DKA [2]; [6])?
A: 30.57 ± 1.94 mmHg

Q: What about the “arterial blood pCO2, Day 4 (end of tx)” value (rat model of DKA [2]; [6]) of the same compound?
A: 30.57 ± 2.23 mmHg

Q: What about the “arterial blood pO2, Day 4 (1 hour of tx)” value (rat model of DKA [2]; [6]) of the same compound?
A: 135.57 ± 6.37 mmHg

Q: What about the “arterial blood pO2, Day 4 (end of tx)” value (rat model of DKA [2]; [6]) of the same compound?
A: 143.85 ± 6.59 mmHg

Q: And the “blood K+ level, Day 4 (1 hour tx)” value (rat model of DKA [2]; [6])?
A: 2.62 ± 0.29 mmol/L

Q: What about the “blood K+ level, Day 4 (end of tx)” value (rat model of DKA [2]; [6]) of the same compound?
A: 2.75 ± 0.27 mmol/L

Q: And the “blood Na+ level, Day 4 (1 hour of tx)” value (rat model of DKA [2]; [6])?
A: 143.42 ± 1.84 mmol/L

Q: And the “blood Na+ level, Day 4 (end of tx)” value (rat model of DKA [2]; [6])?
A: 146.14 ± 1.14 mmol/L

Q: What about the “blood hematocrit (Hct), Day 4 (1 hour of tx)” value (rat model of DKA [2]; [6]) of the same compound?
A: 33.28 ± 1.52 %

Q: And the “blood hematocrit (Hct), Day 4 (end of tx)” value (rat model of DKA [2]; [6])?
A: 29.28 ± 2.22 %

Q: What about the “arterial blood pH, Day 4 (1 hour of tx)” value (rat model of DKA [2]; saline+insulin, alone or after bolus BMS-182874 9 mg/kg or BQ123 1 mg/kg, instrument floor 6.80) of the same compound?
A: 6.81 ± 0.01

Q: And the “arterial blood pH, Day 4 (end of tx)” value (rat model of DKA [2]; saline+insulin, alone or after bolus BMS-182874 9 mg/kg or BQ123 1 mg/kg, instrument floor 6.80, hydrochloride)?
A: 6.91±0.02

Q: What about the “arterial blood pH, Day 4 (end of tx)” value (rat model of DKA [2]; saline+insulin, alone or after bolus BMS-182874 9 mg/kg or BQ123 1 mg/kg, instrument floor 6.80, listed as BMS, hydrochloride) of the same compound?
A: 6.91 ± 0.02

Q: What about the “effect on mean arterial pressure” value (rat model of DKA [3]; day 4, FIG. 3, antagonist given with saline+insulin, result in words) of the same compound?
A: stabilized the arterial pressure

Q: And the “effect on pulse pressure” value (rat model of DKA [3]; day 4, FIG. 4, antagonist given with saline+insulin, result in words)?
A: stabilized the pulse pressure

Q: What about the “effect on heart rate” value (rat model of DKA [3]; day 4, FIG. 5, antagonist given with saline+insulin, result in words) of the same compound?
A: did not produce any decrease in heart rate compared to baseline

Q: What about the “effect on insulin induced hypertension” value (rat model of DKA [3]; day 4, result in words) of the same compound?
A: prevented development of insulin induced hypertension
